The subject of test [1] is KARPAS-299 (human anaplastic large cell lymphoma cell). Put plainly: Cell proliferation assay (CellTiter-Glo), KARPAS-299. The conditions noted are these: 72 hours, NPM-ALK fusion. In kind it is cell-based. From the text: The following method was used to determine the effects of the compounds of the present invention on cell proliferation. H2228 cells (containing EML4-ALK fusion) were purchased from Cell Resource Center of Shanghai Institutes for Biological Sciences, Chinese Academy of Sciences. KARPAS-299 cells (containing NPM-ALK fusion) were purchased from Nanjing COBIOER Biotechnology Co., Ltd. The above two cell lines were used to determine the inhibition of the compounds on cell activities. The cells were cultured in an RPMI 1640 medium containing 10% fetal bovine serum, 100 U penicillin, 100 µg/mL streptomycin, and 1 mM Sodium Pyruvate. The cells were cultured in a 5% CO2 incubator at 37°C. The activity of the cells was determined by CellTiter-Glo® Luminescent Cell Viability Assay kit (Promega, article number: G7573).
The experimental methods were operated according to the steps in the kit instruction, and were briefly described as follows: a test compound was first dissolved in DMSO to prepare a storage solution, and then diluted in gradient with the corresponding cell culture medium to prepare a test sample. […] After the culture, 50 µL of CellTiter-Glo detection solution was added to each well, shaken for 5 minutes, and then stood for 10 minutes, and the luminescence values of each well were read on the microplate reader using a Luminance mode. […]
On the technique in general: ATP-based viability assays read luminescence as a measure of living cells.

Test [2] addresses T1, ALK(G1202R) (Homo sapiens, UniProt Q9UM73, G1202R).
T1 construct: purchased SignalChem A19-12HG-10
The test is described as follows: HTRF KinEASE-TK kinase activity inhibition assay, ALK(G1202R). It is filed as biochemical. The conditions noted are these: ATP 10 µM. The text has this: The following method was used to determine the inhibition degrees of the compounds of the present invention on the activities of recombinant human ALK(G1202R) and ALK(L1196M, G1202R) kinases in vitro. In this method, HTRF®KinEASE-TK tyrosine kinase kit (article No. 62TK0PEB) of Cisbio company was used, the principle of the kit was based on time-resolved fluorescence resonance energy transfer (TF-FRET), and the inhibitions of the compounds on the activities of the ALK(G1202R) and ALK(L1196M, G1202R) kinases were reflected by determining a phosphorylation degree of a biotinylated polypeptide substrate mediated by ALK kinase. For detailed experimental operation, please refer to the kit instruction. […]
The experimental flow was briefly described as follows: a test compound was first dissolved in DMSO to prepare a storage solution, and then diluted in gradient with a buffer provided in the kit. […] An ATP Km value concentration of each ALK protein was determined by using an ATP solution diluted in gradient (Sangon Biotech (Shanghai) Co., Ltd., A600311). […] After incubation, fluorescence intensity values of each well at an excitation wavelength of 304 nm, and emission wavelengths of 620 nm and 665 nM were determined in a TF-FRET mode on a microplate reader, and the fluorescence intensity ratio 665/620 of each hole was calculated. […]

T1 sequence (Q9UM73 19-1620 G1202R): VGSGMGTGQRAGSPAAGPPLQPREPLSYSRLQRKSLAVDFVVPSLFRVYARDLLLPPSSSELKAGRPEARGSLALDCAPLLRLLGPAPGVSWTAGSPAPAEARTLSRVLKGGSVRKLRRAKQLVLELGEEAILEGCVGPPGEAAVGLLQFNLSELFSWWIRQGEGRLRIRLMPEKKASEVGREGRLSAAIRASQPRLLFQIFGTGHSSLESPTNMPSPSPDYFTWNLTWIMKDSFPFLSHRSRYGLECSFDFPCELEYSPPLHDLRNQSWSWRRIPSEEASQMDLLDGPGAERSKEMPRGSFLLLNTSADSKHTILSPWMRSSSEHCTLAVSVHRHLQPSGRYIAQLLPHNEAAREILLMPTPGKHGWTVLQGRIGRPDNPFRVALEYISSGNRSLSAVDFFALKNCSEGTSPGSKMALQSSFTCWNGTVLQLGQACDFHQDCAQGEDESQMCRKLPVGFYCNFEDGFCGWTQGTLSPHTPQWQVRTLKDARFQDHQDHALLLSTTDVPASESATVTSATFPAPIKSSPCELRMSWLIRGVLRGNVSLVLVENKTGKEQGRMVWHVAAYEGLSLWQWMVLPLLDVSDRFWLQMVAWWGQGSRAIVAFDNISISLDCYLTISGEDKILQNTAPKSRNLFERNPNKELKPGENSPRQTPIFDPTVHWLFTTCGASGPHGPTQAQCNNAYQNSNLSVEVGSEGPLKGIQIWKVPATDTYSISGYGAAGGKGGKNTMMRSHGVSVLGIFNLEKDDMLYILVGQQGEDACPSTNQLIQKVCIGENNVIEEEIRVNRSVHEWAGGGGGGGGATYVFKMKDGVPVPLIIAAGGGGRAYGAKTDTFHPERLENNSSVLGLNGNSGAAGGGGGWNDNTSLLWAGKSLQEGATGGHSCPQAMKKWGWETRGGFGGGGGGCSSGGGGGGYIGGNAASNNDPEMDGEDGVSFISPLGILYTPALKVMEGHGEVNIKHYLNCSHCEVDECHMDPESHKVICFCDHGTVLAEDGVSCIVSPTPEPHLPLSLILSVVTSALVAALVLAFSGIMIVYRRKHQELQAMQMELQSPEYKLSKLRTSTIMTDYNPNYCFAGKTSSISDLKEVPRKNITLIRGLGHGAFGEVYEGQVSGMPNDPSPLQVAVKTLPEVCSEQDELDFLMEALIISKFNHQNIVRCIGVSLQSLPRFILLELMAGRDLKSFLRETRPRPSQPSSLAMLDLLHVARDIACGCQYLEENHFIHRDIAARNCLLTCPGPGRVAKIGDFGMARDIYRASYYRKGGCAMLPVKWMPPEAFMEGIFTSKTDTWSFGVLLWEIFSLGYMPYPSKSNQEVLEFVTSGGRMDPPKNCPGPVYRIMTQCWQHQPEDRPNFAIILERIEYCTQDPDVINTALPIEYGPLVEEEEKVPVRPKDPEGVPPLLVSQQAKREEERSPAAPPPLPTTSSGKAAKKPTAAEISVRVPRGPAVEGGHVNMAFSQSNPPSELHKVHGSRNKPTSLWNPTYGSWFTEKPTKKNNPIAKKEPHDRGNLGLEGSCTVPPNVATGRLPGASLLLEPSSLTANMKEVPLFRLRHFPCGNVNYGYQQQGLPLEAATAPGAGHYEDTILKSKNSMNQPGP

For `C[C@H]1Nc2ccn3ncc(c3n2)C(=O)NC[C@@]2(C)Cc3cc(F)cc1c3O2` [Example 8, (3R,11R)-6-fluoro-3,11-dimethyl-10-oxa-2,13,17,1 8,21-pentaazapentacyclo[13.5.2.1^8,11.0^4,9.0^18,22]tric osa-1(21),4,6,8,15(22),16,19-heptaen-14-one], the results for the IC50 in test [1] and in test [2] were 65.5 nM and 13.2 nM, respectively.
On the same counts, the results for `C[C@H]1Nc2ccn3nc(N)c(c3n2)C(=O)NC[C@@]2(C)Cc3cc(F)cc1c3O2` [Example 25, (3R,11R)-16-amino-6-fluoro-3,11-dimethyl-10-oxa-2,13,17,18,21-pentaazapentacyclo[13.5.2.1^8,11.0^4,9. 0^18,22]tricosa-1(21),4,6,8,15(22),16,19-heptaen-14-one] are 52.7 nM and 13.6 nM.

Broadly, the IC50 is the point on the concentration scale where inhibition reaches its midpoint.
